Laboratory results: patent publication US20250361241A1, “HPK1 INHIBITOR AND MEDICAL USE THEREOF” (Betta Pharmaceuticals Co., Ltd., priority 2022, published 2025)
Where “and” joins values, the source holds several entries; their conditions need not be identical. Equal values may be shown once.

Tests used:
[1] = molecular target: GLK (Homo sapiens (Human), UniProt Q8IVH8); assay: GLK kinase assay (1 mM ATP system), ADP-Glo; assay type: biochemical
Description: Solution […] The test compound was serially diluted using DMSO to 200 times the detection concentration. […] Centrifuge at 1000×g for 30 seconds and incubate at 25° C. for 15 minutes. • (5) Add ATP and substrate: Add 2 μL of 2×ATP-MBP solution to the 384-well plate and centrifuge at 1000×g for 30 seconds. Seal the plate with a sealing film and incubate at 25° C. for 60 minutes. • (6) Add ADP-Glo reagent: Add 4 μL ADP-Glo reagent (Promega, V9103) to the 384-well plate, centrifuge at 1000×g for 30 seconds, and incubate at 25° C. for 60 minutes. • (7) Detection of luminescent signal: Add 8 μL of luminescent detection reagent (Promega, V9103) to a 384-well plate, centrifuge at 1000×g for 30 seconds, and incubate at 25° C. for 60 minutes. The chemiluminescent signal was read using a BMG microplate reader. • (8) Calculation of percentage inhibition rate: […] See Table 2 for the GLK kinase IC50 data of the example compounds on […].

[2] = test system: human peripheral blood mononuclear cells; assay: Detection of IFN-γ secretion in human peripheral blood mononuclear cells (anti-CD3/CD28 beads, ELISA); assay type: cell-based; conditions: for Maximum induction factor: IFN-γ secretion, human PBMC; for EC3x: concentration for IFN-γ secretion of human PBMC to reach 3 times the baseline, 3 days
Description: Pharmacological Experiment 4: Detection of IFN-γ Secretion in Human Peripheral Blood Monocytes
• (1) Take human peripheral blood mononuclear cells frozen in liquid nitrogen, thaw in a 37° C. water bath, add 5 mL of preheated RPMI-1640 complete medium (containing 10% fetal bovine serum and penicillin/streptomycin), centrifuge at 500 g for 10 minutes, and discard the supernatant; • (2) Resuspend the cells in RPMI-1640 complete medium, adjust the density to 5×10^6 cells/mL, inoculate in a low-adhesion 6-well plate (Corning, 3471), and culture at 37° C. for 2 days; • (3) Collect cultured human peripheral blood mononuclear cells, centrifuge at 500 g for 10 min, and discard the supernatant; • (4) Resuspend the cells in RPMI-1640 complete medium, adjust the density to 1×10^6 cells/mL, and inoculate them in a round-bottom 96-well plate (Jet Biofil, TCP-002-096), with 100 μL per well; • (5) Add 50 μL of the test compound to each well and incubate at 37° C. for 30 min; • (6) Take human anti-CD3/CD28 magnetic beads (Miltenyi, 130-091-441), wash once with RPMI-1640 complete medium, and adjust the density to 0.5×106 beads/mL for later use; • (7) After the compound incubation, 50 μL of anti-human CD3/CD28 magnetic beads were added to each well and cultured at 37° C. for 3 days, • (8) The cell culture supernatant was obtained and the IFN-γ secretion was detected using the Human IFN-gamma DuoSet ELISA kit (R&D, DY285B-05); • (9) The log value of concentration was used as the X-axis and the IFN-γ secretion amount was used as the Y-axis. The “log (agonist) vs. response−variable slope” equation of the analysis software GraphPad Prism 7 was used to fit the dose-effect curve, thereby obtaining the EC3x value and the maximum induction factor of the compound for the secretion of IFN-γ from human peripheral blood mononuclear cells to reach 3 times the baseline.

[3] = molecular target: HPK1 (Homo sapiens (Human), UniProt Q92918); assay: HPK1 enzyme activity detection (1 mM ATP system), ADP-Glo with MBP substrate, Pharmacological Experiment 2; assay type: biochemical
HPK1, sequence (Q92918 whole entry, species assumed): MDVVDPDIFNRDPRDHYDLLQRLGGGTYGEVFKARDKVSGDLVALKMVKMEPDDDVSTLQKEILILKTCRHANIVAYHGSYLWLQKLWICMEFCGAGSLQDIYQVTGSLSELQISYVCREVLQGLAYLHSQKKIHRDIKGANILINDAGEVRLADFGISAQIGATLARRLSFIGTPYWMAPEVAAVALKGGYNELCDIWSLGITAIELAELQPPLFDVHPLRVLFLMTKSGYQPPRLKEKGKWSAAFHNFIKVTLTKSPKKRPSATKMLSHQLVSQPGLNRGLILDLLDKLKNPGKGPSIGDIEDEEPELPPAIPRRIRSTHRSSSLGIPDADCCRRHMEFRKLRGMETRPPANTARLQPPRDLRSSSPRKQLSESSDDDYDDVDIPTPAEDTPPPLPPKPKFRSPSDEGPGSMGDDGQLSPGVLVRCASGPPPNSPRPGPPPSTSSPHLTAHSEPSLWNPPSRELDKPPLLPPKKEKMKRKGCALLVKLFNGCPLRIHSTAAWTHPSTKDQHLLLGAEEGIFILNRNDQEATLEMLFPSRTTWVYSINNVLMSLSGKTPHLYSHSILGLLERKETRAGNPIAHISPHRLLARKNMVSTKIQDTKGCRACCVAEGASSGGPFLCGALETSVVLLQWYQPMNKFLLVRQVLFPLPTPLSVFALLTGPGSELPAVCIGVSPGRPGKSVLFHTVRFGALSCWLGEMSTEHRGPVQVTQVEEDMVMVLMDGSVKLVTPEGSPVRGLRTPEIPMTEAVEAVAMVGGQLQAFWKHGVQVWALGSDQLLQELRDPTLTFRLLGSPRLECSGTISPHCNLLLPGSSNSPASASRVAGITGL
Description: Pharmacological Experiment 2: […] The test compound was serially diluted using DMSO to 200 times the detection concentration. […] Centrifuge at 1000×g for 30 seconds and incubate at 25° C. for 15 minutes. • (5) Adding ATP and substrate: Add 2 μL of 2×ATP-MBP solution to the 384-well plate and centrifuge at 1000×g for 30 seconds. Seal the plate with a sealing film and incubate at 25° C. for 60 minutes. • (6) Add ADP-Glo reagent: Add 4 μL ADP-Glo reagent (Promega, V9103) to the 384-well plate, centrifuge at 1000×g for 30 seconds, and incubate at 25° C. for 60 minutes. • (7) Detection of luminescent signal; Add 8 μL of luminescent detection reagent (Promega, V9103) to a 384-well plate, centrifuge at 1000×g for 30 seconds, and incubate at 25° C. for 60 minutes. The chemiluminescent signal was read using a BMG instrument. • (8) Calculation of percentage inhibition rate: […] See Table 2 for the enzymatic IC 50 data of the example compounds on HPK1.

GLK, sequence (Q8IVH8 whole entry, species assumed): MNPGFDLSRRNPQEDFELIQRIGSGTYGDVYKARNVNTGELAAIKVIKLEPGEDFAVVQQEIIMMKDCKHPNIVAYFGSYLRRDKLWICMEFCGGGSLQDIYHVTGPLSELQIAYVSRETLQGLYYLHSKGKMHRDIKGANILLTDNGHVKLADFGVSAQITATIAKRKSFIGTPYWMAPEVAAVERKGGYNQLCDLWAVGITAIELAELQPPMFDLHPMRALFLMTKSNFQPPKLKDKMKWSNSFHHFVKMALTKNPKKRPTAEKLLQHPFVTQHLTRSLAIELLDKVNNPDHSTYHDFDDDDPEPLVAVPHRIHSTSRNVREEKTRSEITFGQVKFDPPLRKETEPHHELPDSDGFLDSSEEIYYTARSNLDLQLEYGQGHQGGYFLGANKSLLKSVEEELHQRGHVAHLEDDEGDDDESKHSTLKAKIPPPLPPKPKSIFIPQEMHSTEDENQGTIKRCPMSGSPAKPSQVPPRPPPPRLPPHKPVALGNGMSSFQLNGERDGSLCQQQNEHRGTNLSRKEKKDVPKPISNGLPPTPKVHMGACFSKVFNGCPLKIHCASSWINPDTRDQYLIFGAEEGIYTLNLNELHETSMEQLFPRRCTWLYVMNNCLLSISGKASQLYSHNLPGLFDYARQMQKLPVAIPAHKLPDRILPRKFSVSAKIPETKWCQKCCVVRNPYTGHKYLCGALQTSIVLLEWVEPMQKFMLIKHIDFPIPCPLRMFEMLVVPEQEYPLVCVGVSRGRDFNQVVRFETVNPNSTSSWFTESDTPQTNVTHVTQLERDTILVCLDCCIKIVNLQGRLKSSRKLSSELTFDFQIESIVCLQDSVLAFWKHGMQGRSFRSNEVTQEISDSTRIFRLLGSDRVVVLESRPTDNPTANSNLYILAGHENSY

IC50 [1]	IC50 [3]	Structure (SMILES)	Maximum induction factor [2]	EC3x [2]
338 nM	4.44 nM	CN(C)C1COC2(CCOCC2)c2ccc(Nc3ccc(-c4cnc5cc(F)ccn45)c4c3C(=O)NC4)nc21 (centres unmarked) [Compound 49, 7-((8′-(DIMETHYLAMINO)-2,3,5,6,7′,8′-HEXAHYDROSPIRO[PYRAN-4,5′-PYRAN[4,3-B]PYRIDINE]-2′-YL)AMINO)-4-(7-FLUOROIMIDAZOLE[1,2-A]PYRIDIN-3-YL)ISOINDOL-1-ONE]	10.7 and 5.7	152 nM and 294 nM
1200 nM	11.1 nM	O=C1NCc2c(-c3cnc4cc(F)ccn34)ccc(Nc3ccc4c(n3)CCCC43CCC3)c21 [Compound 125]	20.2	173 nM
970 nM	6.34 nM	CN(C)C1CC2(CCOC2)c2ccc(Nc3ccc(-c4cnc5cc(Cl)ccn45)c4c3C(=O)NC4)nc21 (centres unmarked) [Compound 151]	6.5	53 nM
105 nM	10.6 nM	CN(C)C1CC2(CCOCC2)c2ccc(Nc3ccc(-c4cnc5cc(C6CC6)ccn45)c4c3C(=O)NC4)nc21 (centres unmarked) [Compound 164, 4-(7-CYCLOPROPYLIMIDAZO[1,2-A]PYRIDIN-3-YL)-7-((7-(DIMETHYLAMINO)-2′,3′,5′,6,6′,7-HEXAHYDROSPIRO[CYCLOPENTANE[B]PYRIDINE-5,4′-PYRAN]-2-YL)AMINO)ISOINDOL-1-ONE]	9.2	458 nM
679 nM	3.35 nM	Cc1ccn2c(-c3ccc(Nc4ccc5c(n4)CCCC54CCOCC4)c4c3CNC4=O)cnc2c1 [Compound 121]	19.4	140 nM
273 nM	2.78 nM	O=C1NCc2c(-c3cnc4cc(F)ccn34)ccc(Nc3ccc4c(n3)C(N3CC[C@H](F)C3)CC43CCOCC3)c21 (some centres unmarked) [Compound 75]	8.3 and 10.5	64 nM and 119 nM
	7.15 nM	O=C1NCc2c(-c3cnc4cc(F)ccn34)ccc(Nc3ccc4c(n3)C(N3C5CCC3COC5)CC43CCOCC3)c21 (centres unmarked) [Compound 115]	9.6	225 nM
	5.26 nM	O=C1NCc2c(-c3cnc4cc(F)ccn34)ccc(Nc3ccc4c(n3)C(NCC(F)F)CC43CCOCC3)c21 (centres unmarked) [Compound 105]	14.1	58 nM
1370 nM	25.3 nM	O=C1NCc2c(-c3cnc4n3CCCC4)ccc(Nc3ccc4c(n3)CCCC43CCOCC3)c21 [Compound 167]		
70.7 nM	3.76 nM	CN(C)C1CC2(CCOCC2)c2ccc(Nc3ccc(-c4cnc5cc(CO)ccn45)c4c3C(=O)NC4)nc21 (centres unmarked) [Compound 41, 7-((7-(DIMETHYLAMINO)-2′,3′,5′,6,6′,7-HEXAHYDROSPIRO[B]PYRIDIN-5,4′-PYRAN]-2-YL)AMINO)-4-(7-(HYDROXYMETHYL)IMIDAZO[1,2-A]PYRIDIN-3-YL)ISOINDOL-1-ONE]		
30.3 nM	1.51 nM	Cc1cc(Nc2ccc(-c3cnc4ccccn34)c3c2C(=O)NC3)nc2c1C1(CCOCC1)C[C@H]2N(C)C [Compound 47]		
646 nM	10.9 nM	O=C1NCc2c(-c3cnn4c3CCCC4)ccc(Nc3ccc4c(n3)CNCC43CCOCC3)c21 [Compound 154]		
188 nM	2.99 nM	COC1(C)CN(C2CC3(CCOCC3)c3ccc(Nc4ccc(-c5cnc6cc(F)ccn56)c5c4C(=O)NC5)nc32)C1 (centres unmarked) [Compound 70]		
562 nM	5.04 nM	O=C1NCc2c(-c3cnc4cc(F)ccn34)ccc(Nc3ccc4c(n3)C(NCC3CC3)CC43CCOCC3)c21 (centres unmarked) [Compound 117]		
831 nM	5.19 nM	CC(C)N(C)C1CC2(CCOCC2)c2ccc(Nc3ccc(-c4cnc5cc(F)ccn45)c4c3C(=O)NC4)nc21 (centres unmarked) [Compound 85, 4-(7-FLUOROIMIDAZO[1,2-A]PYRIDIN-3-YL)-7-((7-(ISOPROPYL(METHYL)AMINO)-2′,3′,5′,6,6′,7-HEXAHYDRO SPIRO[CYCLOPENTYL[B]PYRIDIN-5,4′-PYRAN]-2-YL)AMINO)ISOINDOL-1-ONE]		
779 nM	8.18 nM	CN(C)C1CCC2(CCOCC2)c2ccc(Nc3ccc(-c4ccnc5c4ccn5C)c4c3C(=O)NC4)nc21 (centres unmarked) [Compound 34]		
317 nM	2.67 nM	O=C1NCc2c(-c3cnc4cc(F)ccn34)ccc(Nc3ccc4c(n3)C(N3C[C@H]5C[C@@H]3CO5)CC43CCOCC3)c21 (some centres unmarked) [Compound 110]		
158 nM	2.25 nM	CN(C)C1CC2(CCOCC2)c2ccc(Nc3ccc(-c4cnn5ccccc45)c4c3C(=O)NC4)nc21 (centres unmarked) [Compound 37]		
> 30000 nM	7.42 nM	CC(C)NC1CC2(CCOCC2)c2ccc(Nc3ccc(-c4cnc5cc(F)ccn45)c4c3C(=O)NC4)nc21 (centres unmarked) [Compound 102]		
> 30000 nM	12.4 nM	O=C1NCc2c(-c3cnc4cc(F)ccn34)ccc(Nc3ccc4c(n3)C(N3CCC(F)(F)CC3)CC43CCOCC3)c21 (centres unmarked) [Compound 98]		
232 nM	2.92 nM	CN(C)C1CC2(CCOCC2)c2ccc(Nc3ccc(-c4cnn5cccnc45)c4c3C(=O)NC4)nc21 (centres unmarked) [Compound 38]		
8.81 nM	2.06 nM	Cc1cc(Nc2ccc(-c3cnn4ccccc34)c3c2C(=O)NC3)nc2c1C1(CCOCC1)C[C@H]2N(C)C [Compound 48]		
858 nM	5.22 nM	CC(C)(C)NC1CC2(CCOCC2)c2ccc(Nc3ccc(-c4cnc5cc(F)ccn45)c4c3C(=O)NC4)nc21 (centres unmarked) [Compound 101]		

Structure (SMILES)	IC50 [1]	IC50 [3]	Maximum induction factor [2]	EC3x [2]
CN(C)C1CC2(CCOCC2)c2ccc(Nc3ccc(-c4cnc5cc(C#N)ccn45)c4c3C(=O)NC4)nc21 (centres unmarked) [Compound 157, 3-(7-((7-(DIMETHYLAMINO)-2′,3′,5′,6,6′,7-HEXAHYDROSPIRO]CYCLOPENTANE[B]PYRIDINE-5,4′-PYRAN]-2-YL)AMINO)-1-OXOISOINDOL-4-YL)IMIDAZO[1,2-A]PYRIDINE-7-CARBONITRILE]	877 nM	5.9 nM		
O=C1NCc2c(-c3cnc4cc(F)ccn34)ccc(Nc3ccc4c(n3)C(N3CC(F)C3)CC43CCOCC3)c21 (centres unmarked) [Compound 67, 7-(7-(3-FLUOROAZETIDINE-1-YL)-2′,3′,5′,6,6′,7-HEXAHYDROSPIRO[B]PYRIDINE-5,4′-PYRAN]-2-YL)AMINO)-4-(7-FLUOROIMIDAZO[1,2-A]PYRIDIN-3-YL)ISOINDOLIN-1-ONE]	136 nM	2.49 nM		
CN(C)C1CC2(CCOCC2)c2ccc(Nc3ccc(-c4cnc5n4CCOC5)c4c3C(=O)NC4)nc21 (centres unmarked) [Compound 165, 4-(5,6-DIHYDRO-8H-IMIDAZO[2,1-C][1,4]OXAZIN-3-YL)-7-((7-(DIMETHYLAMINO)-2′,3′,5′,6,6′,7-HEXAHYDROSPIRO[CYCLOPENTA[B]PYRIDINE-5,4′-PYRAN]-2-YL)AMINO)ISOINDOL-1-ONE]	1190 nM	24.9 nM		
O=C1NCc2c(-c3cnc4cc(OC(F)F)ccn34)ccc(Nc3ccc4c(n3)C(NC3CC3)CC43CCOCC3)c21 (centres unmarked) [Compound 178, 7-((7-(CYCLOPROPYLAMINO)-2′,3′,5′,6,6′,7-HEXAHYDROSPIRO[CYCLOPENTADIENYL[B]PYRIDINE-54′-PYRAN]-2-YL)AMINO)-4-(7-(DIFLUOROMETHOXY)IMIDAZO[1,2-A]PYRIDIN-3-YL)ISOINDOLIN-1-ONE]	1240 nM	13.7 nM		
